Where a name gives a salt, the structure may show the parent alone.

As usually defined, the IC50 is the concentration needed to halve the response being measured. A word on the melting point: it is the temperature of the solid-liquid transition.

One data set addresses T1, human NTPDase1 (Homo sapiens, UniProt P49961).
T1 construct: expressed in transfected cells; host or cells: COS-7 cells (membrane preparation)
T1 sequence (P49961 1-510): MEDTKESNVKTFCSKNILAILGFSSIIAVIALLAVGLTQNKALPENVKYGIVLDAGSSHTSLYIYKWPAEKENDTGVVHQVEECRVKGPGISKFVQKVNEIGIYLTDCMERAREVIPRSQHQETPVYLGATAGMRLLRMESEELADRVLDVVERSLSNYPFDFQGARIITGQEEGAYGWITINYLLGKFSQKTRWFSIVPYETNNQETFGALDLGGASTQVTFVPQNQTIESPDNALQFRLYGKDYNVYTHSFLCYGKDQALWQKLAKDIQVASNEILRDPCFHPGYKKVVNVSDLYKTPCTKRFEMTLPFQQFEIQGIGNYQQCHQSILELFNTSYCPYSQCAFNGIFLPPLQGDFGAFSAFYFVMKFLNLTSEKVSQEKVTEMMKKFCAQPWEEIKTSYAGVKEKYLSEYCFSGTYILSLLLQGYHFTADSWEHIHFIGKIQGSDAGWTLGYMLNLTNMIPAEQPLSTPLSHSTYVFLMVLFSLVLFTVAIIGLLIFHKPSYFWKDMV
Briefly: Malachite green assay, human NTPDase1. It counts as biochemical. The settings on record: 2 μM compound; 50 µM ATP; COS-7 membrane preparation; read-out: % inhibition at 2 μM concentration, NTPDase1. How it is done:
(§1) Membrane preparations expressing human NTPDase1, -2, -3, or -8, respectively, were obtained as previously described ([Sévigny et al., 1997]; [Cogan et al., 1999]; [Kukulski et al., 2005]; [Lecka et al., 2013]; [Lee et al., 2018]). Enzyme inhibition assays were performed using the malachite green assay in analogy to published procedures with some modifications ([Dou et al., 2018]). The reaction buffer contained 10 mM HEPES, 2 mM CaCl2, and 1 mM MgCl2 (pH 7.4) in a final volume of 50 μL in transparent 96-well half-area plates. The compounds were initially tested at a final concentration of 2 µM using a COS-7-cell membrane preparation expressing the appropriate NTPDase isoenzyme (protein amount: 143 ng for NTPDase1, 175 ng for NTPDase2, 152 ng for NTPDase3, and 175 ng for NTPDase8). Preincubated of the enzyme preparations was perfomred at 37°C in the presence or absence of test compounds with gentle shaking (Eppendorf Thermomixer comfort at 500 rpm) for 5 min. […] ([Kukulski et al., 2005]). After 15 min of incubation at 37°C with gentle shaking, the reaction was stopped by the addition of the detection reagents (20 µL malachite green solution, 0.6 mM, and 30 µL of ammonium molybdate solution, 20 mM, in 1.5 M sulfuric acid). The released inorganic phosphate was quantified after 20 min of gentle shaking at 25°C by measuring the absorption of the malachite green-phosphomolybdate complex at 600 nm using a BMG PheraStar FS plate reader (BMG Labtech GmbH, Ortenberg, Germany). The corrected absorption was calculated by subtracting the absorption of the negative control samples, which were incubated with previously denatured enzyme (90°C, 15 min). Full concentration-inhibition curves were determined with inhibitor concentrations ranging from 0.03 to 30 µM in the presence of 2% DMSO. Inhibition-type experiments were performed with 25, 50, 100, 150 and 200 µM ATP as substrate for NTPDase2 in the presence of inhibitor 20 (0, 0.25, 0.5, and 1 µM) and 25, 50, 100 and 150 µM ATP substrate for NTPDase3 and compound 42 (0.25, 0.5, and 1 µM). For all of the presented data, at least three independent experiments were performed, and IC50 values were calculated by GraphPad Prism 8 software.
(§2) Inhibition of human NTPDases was performed using the malachite green assay, which was established on a robotic system (Z’ factors > 0.70) ([Baykov et al., 1988]; [Fiene et al., 2015]). The malachite green assay enables the detection of the phosphate produced by the enzymatic hydrolysis of nucleotides. A fixed substrate concentration of 50 µM ATP for NTPDase1 and 100 µM for NTPDase2, -3, and -8 was employed. Test compounds were initially screened at a concentration of 2 μM. […] A total of 48 synthesized anthraquinone derivatives including 14 new compounds not previously described in the literature were evaluated for their inhibitory activity at human NTPDase1, -2, -3, and -8 (for results see Table 1).

The next data set deals with T2, human NTPDase2 (Homo sapiens, UniProt Q9Y5L3).
T2 construct: expressed in transfected cells; host or cells: COS-7 cells (membrane preparation)
T2 sequence (Q9Y5L3 1-495): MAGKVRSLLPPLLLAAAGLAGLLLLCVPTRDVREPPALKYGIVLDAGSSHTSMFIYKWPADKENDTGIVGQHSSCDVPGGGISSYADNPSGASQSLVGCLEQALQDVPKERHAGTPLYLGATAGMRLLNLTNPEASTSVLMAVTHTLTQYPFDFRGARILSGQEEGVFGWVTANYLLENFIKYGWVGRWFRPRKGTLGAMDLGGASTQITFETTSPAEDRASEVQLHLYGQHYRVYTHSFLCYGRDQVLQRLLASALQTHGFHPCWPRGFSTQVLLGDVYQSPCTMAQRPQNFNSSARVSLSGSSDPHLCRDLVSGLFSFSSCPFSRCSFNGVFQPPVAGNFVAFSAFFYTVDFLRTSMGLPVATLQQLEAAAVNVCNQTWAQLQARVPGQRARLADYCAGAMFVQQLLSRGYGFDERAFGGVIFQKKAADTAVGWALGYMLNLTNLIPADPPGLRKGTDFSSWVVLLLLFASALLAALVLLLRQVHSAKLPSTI
As to the kind of experiment: Malachite green assay, human NTPDase2. The class given is biochemical. The note with it: 100 µM ATP, COS-7 membrane preparation; for inhibition at 2 µM: 2 μM compound, read-out: % inhibition at 2 μM concentration, NTPDase2; for IC50: read-out: IC50 ± SEM, NTPDase2. As for the experimental part:
as §1, §2

The target in a further data set is T3, human NTPDase3 (Homo sapiens, UniProt O75355).
T3 construct: expressed in transfected cells; host or cells: COS-7 cells (membrane preparation)
T3 sequence (O75355 1-529): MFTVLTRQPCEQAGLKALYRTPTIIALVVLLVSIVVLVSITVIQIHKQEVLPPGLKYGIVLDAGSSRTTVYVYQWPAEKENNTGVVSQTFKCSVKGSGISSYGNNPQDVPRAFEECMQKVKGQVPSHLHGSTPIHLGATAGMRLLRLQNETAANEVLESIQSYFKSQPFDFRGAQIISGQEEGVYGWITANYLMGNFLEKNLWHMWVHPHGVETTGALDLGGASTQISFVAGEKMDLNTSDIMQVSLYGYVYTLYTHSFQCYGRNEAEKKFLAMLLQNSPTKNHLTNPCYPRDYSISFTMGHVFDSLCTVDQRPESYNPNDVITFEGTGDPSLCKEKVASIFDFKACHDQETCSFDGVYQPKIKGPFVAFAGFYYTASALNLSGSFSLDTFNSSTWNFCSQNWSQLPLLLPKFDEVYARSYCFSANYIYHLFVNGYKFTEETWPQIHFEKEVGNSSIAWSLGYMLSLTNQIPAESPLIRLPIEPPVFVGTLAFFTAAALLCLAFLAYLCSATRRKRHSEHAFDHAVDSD
As to the kind of experiment: Malachite green assay, human NTPDase3. It counts as biochemical. The note with it: 100 µM ATP, COS-7 membrane preparation; for IC50: read-out: IC50 ± SEM, NTPDase3; for inhibition at 2 µM: 2 μM compound, read-out: % inhibition at 2 μM concentration, NTPDase3. As for the experimental part: as §1, §2

A further data set has as its target T4, human NTPDase8 (Homo sapiens, UniProt Q5MY95).
T4 construct: expressed in transfected cells; host or cells: COS-7 cells (membrane preparation)
T4 sequence (Q5MY95 1-495): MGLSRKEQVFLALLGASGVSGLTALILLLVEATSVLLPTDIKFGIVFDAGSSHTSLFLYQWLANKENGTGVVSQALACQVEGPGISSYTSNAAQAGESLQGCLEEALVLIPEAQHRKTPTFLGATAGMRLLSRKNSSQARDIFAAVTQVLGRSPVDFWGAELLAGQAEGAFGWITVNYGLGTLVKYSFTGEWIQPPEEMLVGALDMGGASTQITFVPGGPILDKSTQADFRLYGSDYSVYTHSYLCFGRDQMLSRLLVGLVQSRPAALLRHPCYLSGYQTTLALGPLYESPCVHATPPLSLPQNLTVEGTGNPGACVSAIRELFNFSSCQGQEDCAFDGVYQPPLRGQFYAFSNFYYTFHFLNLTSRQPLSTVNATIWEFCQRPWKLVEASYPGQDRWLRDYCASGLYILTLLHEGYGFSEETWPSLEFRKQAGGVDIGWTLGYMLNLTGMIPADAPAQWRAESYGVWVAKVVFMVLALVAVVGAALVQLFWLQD
Briefly: Malachite green assay, human NTPDase8. The class given is biochemical. The note with it: 2 μM compound; 100 µM ATP; COS-7 membrane preparation; read-out: % inhibition at 2 μM concentration, NTPDase8. As for the experimental part:
as §1, §2

With `Nc1c(S(=O)(=O)[O-])cc(Nc2cccc(CC(=O)O)c2)c2c1C(=O)c1ccccc1C2=O.[Na+]` [Compound 30, Sodium 1-amino-4-(3-(carboxymethyl)phenylamino)-9,10-dioxo-9,10-dihydroanthracene-2-sulfonate], the melting point was over 300 °C. The inhibition at 2 µM on human NTPDase1 was -6%. Besides, on human NTPDase2, the inhibition at 2 µM turned out to be 7%. In addition, on human NTPDase3, the IC50 turned out to be 1.52 ± 0.28 µM. Moreover, at human NTPDase8, the inhibition at 2 µM was -11%.

The compound `CCc1cccc(Nc2cc(Br)c(N)c3c2C(=O)c2ccccc2C3=O)c1` [Compound 53, 1-Amino-2-bromo-4-(3-ethylphenylamino)anthracene-9,10-dione] registered a melting point of 229 to 230 °C. Besides, the inhibition at 2 µM on human NTPDase1 is -4%. Besides, the inhibition at 2 µM at human NTPDase2 is 5%. Further, the inhibition at 2 µM at human NTPDase3 was -2%. Moreover, the inhibition at 2 µM on human NTPDase8 is -4%.

Turning to `Nc1c(S(=O)(=O)[O-])cc(Nc2ccc(O)cc2F)c2c1C(=O)c1ccccc1C2=O.[Na+]` [Compound 37, Sodium 1-amino-4-(2-fluoro-4-hydroxyphenylamino)-9,10-dioxo-9,10-dihydroanthracene-2-sulfonate], the melting point is over 300 °C. Also, the inhibition at 2 µM on human NTPDase1 is -8%. Moreover, the inhibition at 2 µM on human NTPDase2 was 5%. Moreover, at human NTPDase3, the inhibition at 2 µM is -12%. Further, the inhibition at 2 µM on human NTPDase8 was -6%.

On to `Nc1c(S(=O)(=O)[O-])cc(Nc2ccc(Sc3ccc(Cl)cc3)cc2)c2c1C(=O)c1ccccc1C2=O.[Na+]` [Compound 45, Sodium 1-amino-4-[4-(4-chlorophenylthio)phenylamino]-9,10-dioxo-9,10-dihydroanthracene-2-sulfonate], for which the melting point is over 300 °C. Besides, at human NTPDase1, the inhibition at 2 µM is 52%. Besides, the half-maximal inhibitory concentration (IC50) on human NTPDase2 was 1.08 ± 0.08 µM. In addition, on human NTPDase3, the inhibition at 2 µM amounted to 42%. For the same compound, at human NTPDase8, the inhibition at 2 µM came to 21%.

Regarding `COc1ccc(Sc2ccc(Nc3cc(S(=O)(=O)[O-])c(N)c4c3C(=O)c3ccccc3C4=O)cc2)cc1.[Na+]` [Compound 47, Sodium 1-amino-4-[4-(4-methoxyphenylthio)phenylamino]-9,10-dioxo-9,10-dihydroanthracene-2-sulfonate], the melting point is over 300 °C. The inhibition at 2 µM at human NTPDase1 came out at 34%. Also, the IC50 at human NTPDase2 is 0.951 ± 0.225 µM. The inhibition at 2 µM on human NTPDase3 was determined as 16%. For the same compound, at human NTPDase8, the inhibition at 2 µM stood at 4%.

Take `Nc1c(S(=O)(=O)[O-])cc(Nc2cccc(I)c2)c2c1C(=O)c1ccccc1C2=O.[Na+]` [Compound 23, Sodium 1-amino-4-(3-iodophenylamino)-9,10-dioxo-9,10-dihydroanthracene-2-sulfonate]: the melting point was over 300 °C. Also, at human NTPDase1, the inhibition at 2 µM was determined as 0%. In addition, the inhibition at 2 µM at human NTPDase2 was 21%. Moreover, at human NTPDase3, the inhibition at 2 µM was 2%. Moreover, at human NTPDase8, the inhibition at 2 µM was 4%.

For the compound `Nc1c(S(=O)(=O)O)cc(Nc2ccc(Sc3ccccc3)c(Cl)c2)c2c1C(=O)c1ccccc1C2=O` (as salt: sodium) [Compound 48, Sodium 1-amino-4-(3-chloro-4-phenylsulfanyl)-phenylamino-9,10-dioxo-9,10-dihydroanthracene-2-sulfonate], the melting point was over 300 °C.

With `Nc1c(S(=O)(=O)O)cc(Nc2cccc(F)c2)c2c1C(=O)c1ccccc1C2=O` [Compound 21], the inhibition at 2 µM at human NTPDase1 was -8%; at human NTPDase2, 15%; at human NTPDase3, 0%; on human NTPDase8 it was -1%.

Turning to `Nc1c(S(=O)(=O)O)cc(Nc2ccccc2)c2c1C(=O)c1ccccc1C2=O` [Compound 14], the inhibition at 2 µM is -13% at human NTPDase1, 15% at human NTPDase2, -10% at human NTPDase3 and -15% on human NTPDase8.

As to `Cc1ccc2ccccc2c1Nc1cc(S(=O)(=O)O)c(N)c2c1C(=O)c1ccccc1C2=O` [Compound 16], the inhibition at 2 µM at human NTPDase1 is 3%; on human NTPDase3 it was -21%; at human NTPDase8, 3%. Besides, the IC50 at human NTPDase2 stood at 5.62 ± 0.72 µM.

With `Nc1c(S(=O)(=O)O)cc(Nc2cccc(C(=O)O)c2)c2c1C(=O)c1ccccc1C2=O` [Compound 26], the inhibition at 2 µM on human NTPDase1 is -17%; on human NTPDase2, 2%; at human NTPDase8, -17%. In addition, on human NTPDase3, the half-maximal inhibitory concentration (IC50) turned out to be 3.1 ± 0.45 µM.
